Measured values reported in PubChem BioAssay AID1259420 (Broad Institute, 2018).
Values joined by “and” are separate entries in the source; they are usually repeats but may differ in a detail not shown here. Equal entries are not always repeated. Records with an inconclusive call do not appear. Active and inactive are the calls of the source. How the calls were made is not given here.

Test system: Toxoplasma gondii growth in host cells, no IFN-gamma
Assay: compound activity on host-cell Toxoplasma growth – dose response (AID 1259420);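 further: host cells were HeLa; final incubation lasted 72 hours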

Row | SMILES | AC50
1 | COc1cc2nc(N3CCN(C(=O)c4ccco4)CC3)nc(N)c2cc1OC | 19 µM
2 | CCOC(=O)c1nn(Cc2ccccc2)c2c1CN(C(=O)CN1CC(c3ccccc3)CC1=O)CC2 (centres undefined) | 28.6 µM
3 | COc1cccc(-c2ccc3c(c2)[C@@H]2[C@@H](CCN2C(=O)c2ccccc2F)[C@H](CO)N3C)c1 | 8.81 µM and 10.2 µM
4 | Cc1ccc(S(=O)(=O)N2CC[C@@H]3[C@H]2c2cc(-c4ccccc4F)ccc2N(C)[C@H]3CO)cc1 | 20.4 µM
5 | CC(C)C#Cc1ccc([C@H]2[C@@H](C#N)N(C(=O)c3cccc(F)c3)[C@@H]2CO)cc1 | 14.1 µM
6 | CC(C)CC#Cc1ccc([C@@H]2[C@@H](CO)N3C(=O)CN(C(=O)Nc4cc(F)ccc4F)C[C@@H]23)cc1 | 17.1 µM
7 | COCCNC(=O)C[C@@H]1C[C@@H]2CN(Cc3ccncc3)C[C@H]2O1 | 29 µM
8 | CN1c2ccc(-c3ccccc3)cc2[C@H]2[C@H](CCN2C(=O)CC2CC2)[C@@H]1CO | 25.4 µM
9 | Cn1cccc1C(=O)N1CCC2(CC1)CN(CC1CC1)C(=O)CO2 | 36.8 µM
10 | CC(C)Oc1ccc(NC(=O)c2nc3c(n2C(C)C)CCN(C(=O)c2ccccc2)C3)cc1 | 31.9 µM
11 | N#C[C@H]1[C@H](c2ccc(C#Cc3ccccc3F)cc2)[C@@H](CO)N1C(=O)c1cccnc1 | > 39 µM (inactive)
12 | Cc1ccc(S(=O)(=O)N2CC[C@@H]3[C@@H](CO)Nc4ccc(-c5cccc(C(=O)N(C)C)c5)cc4[C@@H]32)cc1 | 13.8 µM
13 | CN(C)C(=O)COC[C@@H]1CC[C@H]2[C@H](CCN2CC2CC2)O1 | > 39 µM (inactive)
14 | Cc1nc(N2CCOCC2)nc2c1CCN(C(=O)C1CC1)CC2 | 21.7 µM
15 | COc1cccc(NC(=O)N2CC(=O)N3[C@H](CO)[C@H](c4ccc(C#CCC5CCCC5)cc4)[C@@H]3C2)c1 | 15.9 µM
16 | C[C@H](CO)N1C[C@H](C)[C@H](CN(C)C(=O)c2cc(Cl)cc(Cl)c2)OCc2ccccc2-c2c(n(C)c3ccccc23)C1=O | 15.3 µM
17 | CN1c2ccc(C#Cc3cccnc3)cc2[C@@H]2[C@@H](CCN2C(=O)c2cccc(F)c2)[C@@H]1CO | 30.3 µM

Row | SMILES | AC50
18 | COc1cccc(C#Cc2ccc([C@@H]3[C@H](C#N)N(C(=O)c4ccccn4)[C@H]3CO)cc2)c1 | 19.9 µM
19 | CCN(CC)C(=O)C1Cn2ccnc2C2(CCN(CC(C)C)CC2)O1 (centres undefined) | > 39 µM (inactive)
20 | COc1cccc(-c2ccc(C3[C@@H]4CN(S(=O)(=O)Cc5ccccc5)C[C@H]3N4)cc2)c1 (some centres undefined) | 16.9 µM and 13.1 µM
21 | CS(=O)(=O)N1CC(=O)N2[C@@H](CO)[C@H](c3ccc(C#Cc4ccc(F)cc4)cc3)[C@@H]2C1 | 28 µM
22 | CN(C)C(=O)c1ccc(-c2ccc3c(c2)[C@@H]2[C@@H](CCN2C(=O)C2CCCC2)[C@H](CO)N3C)cc1 | 10.9 µM
23 | C[C@H]1CN([C@@H](C)CO)C(=O)c2cccc(NC(=O)c3ccc(-c4nccs4)cc3)c2O[C@@H]1CN(C)C(=O)Nc1ccc(C(F)(F)F)cc1 | > 42 µM (inactive)
24 | COc1ccc(NC(=O)N2CC[C@@H]3[C@H]2c2cc(C4=CCCCC4)ccc2N(C)[C@H]3CO)cc1 | 17.8 µM
25 | O=C(c1cccn2c(-c3ccc(F)cc3)nnc12)N1CCC(O)(c2ccc(Cl)cc2)CC1 | > 39 µM (inactive)
26 | Cc1ccc(N(Cc2nc(-c3cccc(Cl)c3)oc2C)S(=O)(=O)c2cccs2)cc1 | 8.34 µM
27 | Cc1ccccc1-c1ccc2c(-c3ncc(C(=O)NCCN(C)C)s3)noc2c1 | 24.7 µM
28 | CC(C)CNC(=O)c1nc2c(s1)CCN(C(=O)NCc1ccccc1)CC2 | 18.3 µM
29 | Cc1sc2ncnc(NCC3CCN(c4cnn(C)c(=O)c4)C3)c2c1C (centres undefined) | 29.6 µM
30 | COc1ccc(S(=O)(=O)N2CCCCN3[C@H](CO)[C@H](c4ccc(C#CCC(C)C)cc4)[C@H]3C2)cc1 | 8.14 µM and 12.7 µM
31 | CCc1c(C)sc2c1CCN(Cc1nc(-c3cc(C)ccc3C)oc1C)C2c1ccccc1 (centres undefined) | 16.9 µM
32 | O=c1[nH]c(=O)n([C@H]2C[C@H](O)[C@@H](CO)O2)cc1F | 0.346 µM
33 | COc1cccc(-c2ccc3c(c2)[C@H]2[C@H](CCN2S(=O)(=O)c2ccccc2F)[C@@H](CO)N3)c1 | 11.5 µM and 6.32 µM
34 | N#C[C@H]1[C@@H](c2ccc(-c3cccc(F)c3)cc2)[C@@H](CO)N1C(=O)NC1CCCC1 | > 39 µM (inactive)
